Structures can show the parent of a compound that is named as a salt.
Test system: α1 -adrenoceptor
Assay: α1-adrenoceptor blocking effect, preparation from the thoracic aorta of rabbit, Magnus method
Type: cell-based
Conditions: not given
Protocol: Blocking of α1 -adrenoceptor
The α1 -adrenoceptor blocking effect was determined using a preparation from the thoracic aorta of rabbit, according to the Magnus method and expressed as pA2 value.

| SMILES | pA2 value |
| --- | --- |
| COc1c(C)c(C)c(O)c(C)c1CN(C)CCOc1cc(C)c(O)cc1C(C)C [Ex. 1, N-(3-hydroxy-6-methoxy-2,4,5-trimethylbenzyl)-N-methyl-2-(4-hydroxy-2-isopropyl-5-methylphenoxy)ethylamine] | 9.0 |
| Cc1cc(OCCN(C)Cc2c(C)c(O)c(C)c(C)c2OCCO)c(C(C)C)cc1O [Ex. 2, N-{3-hydroxy-6-(2-hydroxyethoxy)-2,4,5-trimethylbenzyl}-N-methyl-2-(4-hydroxy-2-isopropyl-5-methylphenoxy)ethylamine] | 8.1 |
| COc1c(C)c(C)c(O)c(C)c1CNCCOc1cc(C)c(NC(C)=O)cc1C(C)C [Ex. 3, N-(3-hydroxy-6-methoxy-2,4,5-trimethylbenzyl)-2-(4-acetylamino-2-isopropyl-5-methylphenoxy)ethylamine] | 8.2 |
| CCOc1c(C)c(C)c(O)c(C)c1CN(C)CCOc1cc(C)c(O)cc1C(C)C [Ex. 4, N-(2-ethoxy-5-hydroxy-3,4,6-trimethylbenzyl)-N-methyl-2-(4-hydroxy-2-isopropyl-5-methylphenoxy)ethylamine] | 8.5 |
| CCOc1c(C)c(C)c(OC(C)=O)c(C)c1CN(C)CCOc1cc(C)c(OC(C)=O)cc1C(C)C [Ex. 5, N-(3-acetoxy-6-ethoxy-2,4,5-trimethylbenzyl)-N-methyl-2-(4-acetoxy-2-isopropyl-5-methylphenoxy)ethylamine] | 8.3 |
| CCN(CC)CCN(CCOc1cc(C)ccc1C(C)C)Cc1c(C)c(O)c(C)c(C)c1OC [Ex. 6, N-(2-diethylaminoethyl)-N-(3-hydroxy-6-methoxy-2,4,5-trimethylbenzyl)-2-(2-isopropyl-5-methylphenoxy)ethylamine] | 7.5 |
| CCN(CCOc1cc(C)c(Cl)cc1C(C)C)Cc1c(C)c(O)c(C)c(C)c1OC [Ex. 7, N-ethyl-N-(3-hydroxy-6-methoxy-2,4,5-trimethylbenzyl)-2-(4-chloro-2-isopropyl-5-methylphenoxy)ethylamine] | 7.7 |
| COc1c(C)c(C)c(OC)c(CN(CCOc2cc(C)ccc2C(C)C)C(C)=O)c1C [Ex. 8, N-{2-(2-isopropyl-5-methylphenoxy)ethyl}-N-(2,5-dimethoxy-3,4,6-trimethylbenzyl)acetamide] | 7.3 |
| COc1c(C)c(C)c(O)c(C)c1CN(C)CCOc1cc(C)c(C(C)=O)cc1C(C)C [Ex. 9, N-(3-hydroxy-6-methoxy-2,4,5-trimethylbenzyl)-N-methyl-2-(4-acetyl-2-isopropyl-5-methylphenoxy)ethylamine] | 7.5 |
| COc1c(C)c(C)c(OC)c(CN(C)CCOc2cc(C)c(NC(C)=O)cc2C(C)C)c1C [Ex. 10, N-(2,5-dimethoxy-3,4,6-trimethylbenzyl)-N-methyl-2-(4-acetylamino-2-isopropyl-5-methylphenoxy)ethylamine] | 7.4 |
| COc1c(C)c(C)c(OC)c(CN(C)CCOc2cc(C)c(N)cc2C(C)C)c1C [Ex. 11, N-(2,5-dimethoxy-3,4,6-trimethylbenzyl)-N-methyl-2-(4-amino-2-isopropyl-5-methylphenoxy)ethylamine] | 8.3 |
| COc1c(C)c(C)c(O)c(C)c1CN(C)CCOc1cc(C)ccc1C(C)C [Ex. 12, N-(3-hydroxy-6-methoxy-2,4,5-trimethylbenzyl)-N-methyl-2-(2-isopropyl-5-methylphenoxy)ethylamine] | 8.1 |
| COc1c(C)c(C)c(OC(C)C)c(C)c1CN(C)CCOc1cc(C)ccc1C(C)C [Ex. 14, N-(3-isopropoxy-6-methoxy-2,4,5-trimethylbenzyl)-N-methyl-2-(2-isopropyl-5-methylphenoxy)ethylamine] | 7.6 |
| CCOc1c(C)c(C)c(OC)c(CN(C)CCOc2cc(C)ccc2C(C)C)c1C [Ex. 15, N-(3-ethoxy-6-methoxy-2,4,5-trimethylbenzyl)-N-methyl-2-(2-isopropyl-5-methylphenoxy)ethylamine] | 7.5 |
| Cc1ccc(C(C)C)c(OCCN(C)Cc2c(C)c(O)c(C)c(C)c2OCCO)c1 [Ex. 16, N-{3-hydroxy-6-(2-hydroxyethoxy)-2,4,5-trimethylbenzyl}-N-methyl-2-(2-isopropyl-5-methylphenoxy)ethylamine] | 7.6 |
| C=CCOc1c(C)c(C)c(OC(C)=O)c(C)c1CN(C)CCOc1cc(C)ccc1C(C)C [Ex. 17, N-{3-acetoxy-6-(2-propenyloxy)-2,4,5-trimethylbenzyl}-N-methyl-2-(2-isopropyl-5-methylphenoxy)ethylamine] | 7.4 |

| SMILES | pA2 value |
| --- | --- |
| CCN(CCOc1cc(C)c(Cl)cc1C(C)C)Cc1c(C)c(OC(C)=O)c(C)c(C)c1OC(C)C [Ex. 18, N-(3-acetoxy-6-isopropoxy-2,4,5-trimethylbenzyl)-N-ethyl-2-(4-chloro-2-isopropyl-5-methylphenoxy)ethylamine] | 7.2 |
| CCOc1c(C)c(C)c(O)c(CNCCOc2cc(C)ccc2C(C)C)c1C [Ex. 19, N-(3-ethoxy-6-hydroxy-2,4,5-trimethylbenzyl)-2-(2-isopropyl-5-methylphenoxy)ethylamine] | 7.3 |
| CCOc1c(C)c(C)c(OCc2ccccc2)c(CNCCOc2cc(C)ccc2C(C)C)c1C [Ex. 20, N-(2-benzyloxy-5-ethoxy-3,4,6-trimethylbenzyl)-2-(2-isopropyl-5-methylphenoxy)ethylamine] | 7.2 |
| COc1c(C)c(C)c(O)c(C)c1CNCCOc1cc(C)c(O)cc1C(C)C [Ex. 21, N-(3-hydroxy-6-methoxy-2,4,5-trimethylbenzyl)-2-(4-hydroxy-2-isopropyl-5-methylphenoxy)ethylamine] | 9.8 |
| COc1c(C)c(C)c(O)c(C)c1CN(CCOc1cc(C)c(O)cc1C(C)C)C(C)C [Ex. 22, N-(3-hydroxy-6-methoxy-2,4,5-trimethylbenzyl)-N-isopropyl-2-(4-hydroxy-2-isopropyl-5-methylphenoxy)ethylamine] | 7.5 |
| COCCN(CCOc1cc(C)c(O)cc1C(C)C)Cc1c(C)c(O)c(C)c(C)c1OC [Ex. 23, N-(3-hydroxy-6-methoxy-2,4,5-trimethylbenzyl)-N-(2-methoxyethyl)-2-(4-hydroxy-2-isopropyl-5-methylphenoxy)ethylamine] | 7.6 |
| CCCOc1c(C)c(C)c(O)c(C)c1CN(C)CCOc1cc(C)c(O)cc1C(C)C [Ex. 24, N-(3-hydroxy-6-propoxy-2,4,5-trimethylbenzyl)-N-methyl-2-(4-hydroxy-2-isopropyl-5-methylphenoxy)ethylamine] | 8.3 |
| CCCCOc1c(C)c(C)c(O)c(C)c1CN(C)CCOc1cc(C)c(O)cc1C(C)C [Ex. 26, N-(2-butoxy-5-hydroxy-3,4,6-trimethylbenzyl)-N-methyl-2-(4-hydroxy-2-isopropyl-5-methylphenoxy)ethylamine] | 8.3 |
| CC(=O)Oc1c(C)c(C)c(O)c(CN(C)CCOc2cc(C)c(O)cc2C(C)C)c1C [Ex. 27, N-(3-acetoxy-6-hydroxy-2,4,5-trimethylbenzyl)-N-methyl-2-(4-hydroxy-2-isopropyl-5-methylphenoxy)ethylamine] | 8.1 |
| COc1c(C)c(C)c(OC)c(CN(C)CCOc2cc(C)c(O)cc2C(C)C)c1C [Ex. 28, N-(2,5-dimethoxy-3,4,6-trimethylbenzyl)-N-methyl-2-(4-hydroxy-2-isopropyl-5-methylphenoxy)ethylamine] | 9.0 |
| COCCOc1c(C)c(C)c(O)c(C)c1CN(C)CCOc1cc(C)c(O)cc1C(C)C [Ex. 29, N-{3-hydroxy-6-(2-methoxyethoxy)-2,4,5-trimethylbenzyl}-N-methyl-2-(4-hydroxy-2-isopropyl-5-methylphenoxy)ethylamine] | 8.2 |
| CCOc1c(C)c(C)c(O)c(C)c1CN(CCOc1cc(C)c(O)cc1C(C)C)C(C)C [Ex. 30, N-(2-ethoxy-5-hydroxy-3,4,6-trimethylbenzyl)-N-isopropyl-2-(4-hydroxy-2-isopropyl-5-methylphenoxy)ethylamine] | 7.2 |
| CCN(CCOc1cc(C)c(O)cc1C(C)C)Cc1c(C)c(O)c(C)c(C)c1OC [Ex. 31, N-ethyl-N-(3-hydroxy-6-methoxy-2,4,5-trimethylbenzyl)-2-(4-hydroxy-2-isopropyl-5-methylphenoxy)ethylamine] | 8.6 |
| COc1cc(C(C)C)c(OCCN(C)Cc2c(C)c(OC)c(C)c(C)c2OC)cc1C [Ex. 32, N-(2,5-dimethoxy-3,4,6-trimethylbenzyl)-N-methyl-2-(2-isopropyl-4-methoxy-5-methylphenoxy)ethylamine] | 7.2 |
| CC(=O)Oc1cc(C(C)C)c(OCCN(C)C)cc1C [moxisylyte hydrochloride, reference compound] | 7.6 |
| COc1cc2nc(N3CCN(C(=O)c4ccco4)CC3)nc(N)c2cc1OC [prazosin hydrochloride, reference compound] | 8.6 |

Test system: rabbit
Assay: Orthostatic hypotensive effect, tilting of unanesthetized rabbit, orthostatic index (O.I.)
Type: in vivo
Conditions: iv, tilted 90°, without anesthetization
Text: Orthostatic hypotensive effect
The orthostatic hypotensive effect was examined by the following method which is in accordance with the method of Journal of Pharmacological Methods, vol. 5, p. 53 (1981). A rabbit was fixed at the dorsal position without anesthetization on an orthostatic hypotension measurement apparatus. Polyethylene catheters were inserted in right femoral artery and right femoral vein, and the catheter inserted in the artery was connected to a pressure transducer. The head of the rabbit was tilted rapidly at an angle of 90° from the horizontal position at 15 min intervals with the heart position as a rotational axis, and brought back to the horizontal position one minute later. The tilting was repeated three times, and after confirmation of occurrence of a constant response, a drug was administered from the polyethylene catheter inserted in the vein. […] [formula] (2) Test results

| Dose necessary for O.I. value to achieve 90% | SMILES |
| --- | --- |
| 56.4 μg/kg, iv | COc1c(C)c(C)c(O)c(C)c1CN(C)CCOc1cc(C)c(O)cc1C(C)C [Ex. 1, N-(3-hydroxy-6-methoxy-2,4,5-trimethylbenzyl)-N-methyl-2-(4-hydroxy-2-isopropyl-5-methylphenoxy)ethylamine] |
| 61.3 μg/kg, iv | CCOc1c(C)c(C)c(O)c(C)c1CN(C)CCOc1cc(C)c(O)cc1C(C)C [Ex. 4, N-(2-ethoxy-5-hydroxy-3,4,6-trimethylbenzyl)-N-methyl-2-(4-hydroxy-2-isopropyl-5-methylphenoxy)ethylamine] |
| 32.8 μg/kg, iv | COc1c(C)c(C)c(O)c(C)c1CNCCOc1cc(C)c(O)cc1C(C)C [Ex. 21, N-(3-hydroxy-6-methoxy-2,4,5-trimethylbenzyl)-2-(4-hydroxy-2-isopropyl-5-methylphenoxy)ethylamine] |
| 40.3 μg/kg, iv | COc1c(C)c(C)c(OC)c(CN(C)CCOc2cc(C)c(O)cc2C(C)C)c1C [Ex. 28, N-(2,5-dimethoxy-3,4,6-trimethylbenzyl)-N-methyl-2-(4-hydroxy-2-isopropyl-5-methylphenoxy)ethylamine] |
| 5.6 μg/kg, iv | COc1cc2nc(N3CCN(C(=O)c4ccco4)CC3)nc(N)c2cc1OC [prazosin hydrochloride, reference compound] |
